Reference: patent publication US20120190613A1, “ECHINOCANDIN DERIVATIVES” (priority 2009, published 2012)
≈ marks a conversion by molar mass, not a printed value. Where two headings read alike, the source gives them in different places. Marks after values point to notes of the source that are not given here. Starred links: 1 amine or outer side, 2 acyl side, 3 side chain; linkers in the order of their positions; H or OH if unused. Positions of bridges follow the written chain, without caps; N, C: chain ends. Non-standard residues stand in square brackets, D forms with d. Residues, ends and D or L forms follow the SMILES beside them. *: point of attachment. pTerphenylCO(4''-OnC5H11) = CCCCCOc1ccc(-c2ccc(-c3ccc(C(=O)*)cc3)cc2)cc1; Orn(4R-OH,5R-OH) = O=C([C@H](C[C@@H](O)[C@@H](O)N[*:3])N[*:1])[*:2]; hTyr(3S-OH,4S-OH) = N[C@H](C(=O)O)[C@H](O)[C@@H](O)c1ccc(O)cc1; Pro(3S-OH,4S-Me) = C[C@H]1CN[C@H](C(=O)O)[C@H]1O; Hyp = O=C(O)[C@@H]1C[C@@H](O)CN1

What was measured:
[1] = tested on: C. albicans 104 ATCC 90028; assay: MIC by broth microdilution against C. albicans; type: cell-based
Experimental: (§1) MIC values (μg/mL) of echinocandin class compounds of the invention against various Candida and Aspergillus species were obtained as follows. Test organisms were obtained from the American Type Culture Collection (Manassas, Va.). The isolates were maintained at −80 ° C., then thawed and sub-cultured one day prior to testing (seven days for Aspergillus strains).
(§2) The mouse serum was heat-inactivated for 30 minutes at 56° C., and filtered through a 0.2 μm low protein binding filter unit prior to use.
(§3) MIC values were determined using broth microdilution. The wells of the daughter plates ultimately contained 180 μL of RPMI-1640 medium with and without mouse serum, 10 μL of drug solution, and 10 μL of yeast or fungal inoculum.
(§4) Prior to susceptibility testing, fungal isolates were removed from frozen storage, thawed at room temperature, and subcultured to Potato Dextrose Agar. The Candida strains were incubated overnight at 35° C. and the Aspergillus strains for 7 days at 25° C. Yeast colonies were inoculated into sterile saline and adjusted to the turbidity of a 0.5 McFarland standard. Inoculums from Aspergillus strains were prepared by washing the surface of an agar slant with 1 mL of sterile saline containing 0.05% of Tween 20. The resulting colloidial suspensions were adjusted to an optical density of 0.09 to 0.11 at λ 625 nm.
(§5) Both the yeast and filamentous fungus suspensions were further diluted 1:100 in RPMI-1640 medium and dispensed into sterile reservoirs and used to inoculate the daughter plates. 10 μL of standardized inoculum was delivered into each well. This yielded a final cell concentration in the daughter plates of approximately 2.5×10^3 colony-forming units/mL. Plates were incubated at 35° C. for approximately 48 hr.
(§6) Following incubation, microplates were viewed from the bottom using a plate viewer.

[2] = tested on: C. parapsilosis 630 ATCC 90018; assay: MIC by broth microdilution against C. parapsilosis; type: cell-based
Experimental: as §1, §2, §3, §4, §5, §6

[3] = tested on: A. flavus 626 ATCC 64025; assay: MIC by broth microdilution against A. flavus; type: cell-based; settings: growth reduction of 50%
Experimental: as §1, §2, §3, §4, §5, §6

[4] = tested on: C. albicans R303; assay: Mouse candidiasis infection model, C. albicans density in kidneys; type: in vivo, female CD-1 mice; settings: for Difference from 24-hr control / Mean log10 CFU/kidneys (±SD) / Mean log10 CFU/kidneys (±SEM) / Difference from 24-h control: kidneys at 24 hr
Experimental: The objective of these studies was to evaluate the efficacy of test compounds in the mouse candidiasis infection model.
The strain, C. albicans R303 was transferred from frozen storage onto Sabauroud dextrose agar (SDA) plates and grown for ˜24 hr at 35° C. The inoculum was prepared by transferring colonies from the plate to phosphate buffered saline (PBS) and the concentration adjusted to 10^6 CFU/mL with the aid of a spectrophotometer. The stock was diluted 1:9 to prepare the inoculum. Prior to each run the concentration was verified using the dilution plate count method.
The female CD-1 mice used in this study were obtained from Charles River Laboratories, Portage, MI. The animals were approximately seven-weeks-old at the start of the study and weighed about 16-26 g.
In one approach, mice were made neutropenic with IP injections of cyclophosphamide (150 mg/kg in 10 mL/kg) at 4 and 1 day before inoculation. Each animal was inoculated with the appropriate concentration by injecting 0.1 mL of inoculum into a tail vein. The test compounds were administered IP at 2 hr after infection.
The kidneys were collected from four mice in control group 1 (untreated) at 2 hr after infection, and from the remaining mice in the study at 24 hr after infection. Kidneys were removed aseptically from each mouse and were combined in a sterile tube. An aliquot (2 mL) of sterile PBS was added to each tube and the contents homogenized with a tissue homogenizer (Polytron 3100). Serial dilutions of the tissue homogenates were conducted and 0.1 mL aliquots were spread on SDA plates and the plates incubated at 35° C. overnight. The CFU/kidneys were determined from colony counts. Data were analyzed using one-way ANOVA with the Tukey-Kramer Multiple Comparisons Test (GraphPad InStat version 3.06, GraphPad Software, San Diego, Calif.).
Treatments were administered at 2 hr after infection with 2.1×10^5 CFU/mL of the organism. Data are the means of four mice.
Treatments were administered at 2 hr after infection with 6.4×10^5 CFU/mL of the organism. Data are the means of four mice.
Treatments were administered at 2 hr after infection with 3.8×10^5 CFU/mL of the organism. Data are the means of four mice.
Treatments were administered at 2 hr after infection with 3.8×10^5 CFU/rnL of the organism. Data are the means of four mice.

[5] = Candida albicans, ATCC90028, 48 h, 0% mouse serum
[6] = First run, 1 mg/kg IP 2 hr after infection
[7] = First run, 1 mg/kg IP 2 hr after infection, neutropenic mice
[8] = Second run, 1 mg/kg IP 2 hr after infection
[9] = Third run, 0.5 mg/kg IP 2 hr after infection
[10] = Third run, 1.5 mg/kg IP 2 hr after infection
[11] = Third run, 4.5 mg/kg IP 2 hr after infection
[12] = Fourth run, 0.5 mg/kg IP 2 hr after infection
[13] = Fourth run, 1.5 mg/kg IP 2 hr after infection
[14] = Fourth run, 4.5 mg/kg IP 2 hr after infection

CCCCCOc1ccc(-c2ccc(-c3ccc(C(=O)N[C@H]4C[C@@H](O)[C@@H](O)NC(=O)[C@@H]5[C@@H](O)[C@@H](C)CN5C(=O)[C@H]([C@@H](C)O)NC(=O)[C@H]([C@H](O)[C@@H](O)c5ccc(O)cc5)NC(=O)[C@@H]5C[C@@H](O)CN5C(=O)[C@H]([C@@H](C)O)NC4=O)cc3)cc2)cc1 [Anidulafungin, anidulafungin, reference compound] ({pTerphenylCO(4''-OnC5H11)}-[Orn(4R-OH,5R-OH)]T[Hyp][hTyr(3S-OH,4S-OH)]T[Pro(3S-OH,4S-Me)]; lactam 1-C)
MIC [1, 5]: 0.03 µg/mL (≈ 0.0263 µM) | MIC ([1]; Candida albicans, ATCC90028, 48 h, 50% mouse serum): 0.06 µg/mL (≈ 0.0526 µM) | MIC ([2]; Lodderomyces parapsilosis, ATCC90018, 48 h, 0% mouse serum): 2 µg/mL (≈ 1.75 µM) | MIC ([2]; Lodderomyces parapsilosis, ATCC90018, 48 h, 50% mouse serum): > 16 µg/mL | MIC ([3]; Aspergillus flavus, ATCC64025, 48 h, 0% mouse serum): < 0.015 µg/mL | MIC ([3]; Aspergillus flavus, ATCC64025, 48 h, 50% mouse serum): 0.03 µg/mL (≈ 0.0263 µM) | Difference from 24-hr control [4, 6]: −1.68*** log10 CFU/kidneys | Mean log10 CFU/kidneys (±SD) [4, 7]: 3.09 ± 0.61 log10 CFU/kidneys | Difference from 24-hr control [4, 8]: −1.83*** log10 CFU/kidneys | Mean log10 CFU/kidneys (±SD) [4, 8]: 3.37 ± 0.72 log10 CFU/kidneys | Difference from 24-hr control [4, 9]: −0.47 ns log10 CFU/kidneys | Mean log10 CFU/kidneys (±SEM) [4, 9]: 4.41 ± 0.12 log10 CFU/kidneys | Difference from 24-hr control [4, 10]: −2.11*** log10 CFU/kidneys | Mean log10 CFU/kidneys (±SEM) [4, 10]: 2.77 ± 0.20 log10 CFU/kidneys | Difference from 24-hr control [4, 11]: −3.78*** log10 CFU/kidneys | Mean log10 CFU/kidneys (±SEM) [4, 11]: 1.10 ± 0.38 log10 CFU/kidneys

CC[C@H](C)C[C@H](C)CCCCCCCCC(=O)N[C@H]1C[C@@H](O)[C@@H](NCCN)NC(=O)[C@@H]2[C@@H](O)CCN2C(=O)[C@H]([C@H](O)CCN)NC(=O)[C@H]([C@H](O)[C@@H](O)c2ccc(O)cc2)NC(=O)[C@@H]2C[C@@H](O)CN2C(=O)[C@H]([C@@H](C)O)NC1=O [Caspofungin, caspofungin, reference compound]
MIC [1, 5]: 0.125 µg/mL (≈ 0.114 µM) | MIC ([1]; Candida albicans, ATCC90028, 50% mouse serum, 48 hr, read-out: MIC): 0.06 µg/mL (≈ 0.0549 µM) | MIC ([2]; Lodderomyces parapsilosis, ATCC90018, 48 h, 0% mouse serum, read-out: MIC): 0.5 µg/mL (≈ 0.457 µM) | MIC ([2]; Lodderomyces parapsilosis, ATCC90018, 48 h, 50% mouse serum, read-out: MIC): 2 µg/mL (≈ 1.83 µM) | MIC ([3]; Aspergillus flavus, ATCC64025, 0% mouse serum, 48 hr, read-out: MIC): 0.06 µg/mL (≈ 0.0549 µM) | Difference from 24-hr control [4, 6]: −3.14*** log10 CFU/kidneys | Mean log10 CFU/kidneys (±SD) [4, 7]: 1.63 ± 0.29 log10 CFU/kidneys | Difference from 24-h control [4, 12]: −4.88*** log10 CFU/kidneys | Mean log10 CFU/kidneys (±SEM) [4, 12]: 0.33 ± 0.33 log10 CFU/kidneys | Difference from 24-h control [4, 13]: −4.48*** log10 CFU/kidneys | Mean log10 CFU/kidneys (±SEM) [4, 13]: 0.73 ± 0.42 log10 CFU/kidneys | Difference from 24-h control [4, 14]: −5.20*** log10 CFU/kidneys | Mean log10 CFU/kidneys (±SEM) [4, 14]: 0.00 ± 0.00 log10 CFU/kidneys | Difference from 24-hr control [4, 8]: −3.59*** log10 CFU/kidneys | Mean log10 CFU/kidneys (±SD) [4, 8]: 1.61 ± 0.23 log10 CFU/kidneys

CCC(C)CC(C)CCCCCCCCC(=O)NC1CC(O)C(NCCNC(=O)OCCOC)NC(=O)C2C(O)CCN2C(=O)C(C(O)CCN)NC(=O)C(C(O)C(O)c2ccc(O)cc2)NC(=O)C2CC(O)CN2C(=O)C(C(C)O)NC1=O (stereo not drawn) [Compound 1]
MIC ([1]; 0% mouse serum, 48 hr): 0.5 µg/mL (≈ 0.418 µM) | MIC ([1]; 50% mouse serum, 48 hr): 1 µg/mL (≈ 0.837 µM) | MIC ([2]; 0% mouse serum, 48 hr): 2 µg/mL (≈ 1.67 µM) | MIC ([2]; 50% mouse serum, 48 hr): >16 µg/mL | MIC ([3]; 0% mouse serum, 48 hr): 0.125 µg/mL (≈ 0.105 µM) | MIC ([3]; 50% mouse serum, 48 hr): 0.5 µg/mL (≈ 0.418 µM) | Difference from 24-hr control [4, 6]: −0.13 ns log10 CFU/kidneys | Mean log10 CFU/kidneys (±SD) [4, 7]: 4.65 ± 0.26 log10 CFU/kidneys | Difference from 24-hr control ([4]; First run, 5 mg/kg IP 2 hr after infection): −2.87*** log10 CFU/kidneys | Mean log10 CFU/kidneys (±SD) ([4]; First run, 5 mg/kg IP 2 hr after infection, neutropenic mice): 1.90 ± 0.21 log10 CFU/kidneys | Reduction of yeast density in kidneys ([4]; First run, 5 mg/kg dose, versus 24-hr infected control): 2.87 logs
